Measured values from publication PMC7753147, “High-throughput determination of protein affinities using unmodified peptide libraries in nanomolar scale” (iScience, 2020).

Tests used:
FL-geph = experiment: µSPOT peptide microarray binding assay with full-length geph
native geph = experiment: µSPOT peptide microarray binding assay with native geph from mouse brain lysate
gephE = experiment: µSPOT peptide microarray binding assay with recombinant gephE
[1] = µSPOT peptide microarray, GlyRβ full positional scan, intensity normalised to wild-type sequence DLRSNDFSIVGSLPR (=1)
[2] = µSPOT peptide microarray, GlyRβ full positional scan, native geph from mouse brain lysate, intensity normalised to wild-type sequence DLRSNDFSIVGSLPR (=1)
[3] = µSPOT peptide microarray, GlyRβ full positional scan, recombinant gephE, intensity normalised to wild-type sequence DLRSNDFSIVGSLPR (=1)
[4] = µSPOT full positional scan of GlyRβ 15-mer DLRSNDFSIVGSLPR, intensity normalised to wild-type sequence (= 1)
[5] = µSPOT full positional scan of GlyRβ 15-mer DLRSNDFSIVGSLPR, native geph, intensity normalised to wild-type sequence (= 1)

## DLRSNMFSIVGSLPR [GlyRβ_Full_Positional_Scan_118]
FL-geph; [1]
  Fl-geph Binding Intensity [norm.]: 0.84 norm.
Native geph; [2]
  Native geph Binding Intensity [norm.]: 0.62 norm.
gephE; [3]
  gephE Binding Intensity [norm.]: 0.85 norm.

## DLRSNAFSIVGSLPR [GlyRβ_Full_Positional_Scan_101]
FL-geph; [1]
  Fl-geph Binding Intensity [norm.]: 1.04 norm.
Native geph; [2]
  Native geph Binding Intensity [norm.]: 0.77 norm.
gephE; [3]
  gephE Binding Intensity [norm.]: 0.98 norm.

## DLRSNDFSIRGSLPR [GlyRβ_Full_Positional_Scan_192, GlyR β 414-428 variant V423R]
FL-geph; [1]
  Fl-geph Binding Intensity [norm.]: 0.73 norm.
Native geph; [2]
  Native geph Binding Intensity [norm.]: 0.21 norm.
gephE; [3]
  gephE Binding Intensity [norm.]: 0.6 norm.

## DLRSNDFWIVGSLPR [GlyRβ_Full_Positional_Scan_148, GlyR β 414-428 variant S421W]
FL-geph; [1]
  Fl-geph Binding Intensity [norm.]: 0.79 norm.
Native geph; [2]
  Native geph Binding Intensity [norm.]: 0.24 norm.
gephE; [3]
  gephE Binding Intensity [norm.]: 0.73 norm.

## DLRSNDFSIQGSLPR [GlyRβ_Full_Positional_Scan_200, GlyR β 414-428 variant V423Q]
FL-geph; [1]
  Fl-geph Binding Intensity [norm.]: 1.03 norm.
Native geph; [2]
  Native geph Binding Intensity [norm.]: 0.41 norm.
gephE; [3]
  gephE Binding Intensity [norm.]: 0.7 norm.

## DLRSNDFSIVGSLPQ [GlyRβ_Full_Positional_Scan_300]
FL-geph; [4]
  Fl-geph Binding Intensity [norm.]: 1.33 norm.
Native geph; [5]
  Native geph Binding Intensity [norm.]: 1.41 norm.
gephE; [4]
  gephE Binding Intensity [norm.]: 1.02 norm.

## DLRVNDFSIVGSLPR [GlyRβ_Full_Positional_Scan_066]
FL-geph; [1]
  Fl-geph Binding Intensity [norm.]: 0.9 norm.
Native geph; [2]
  Native geph Binding Intensity [norm.]: 0.98 norm.
gephE; [3]
  gephE Binding Intensity [norm.]: 0.91 norm.

## DLRSNDFSYVGSLPR [GlyRβ_Full_Positional_Scan_169, GlyR β 414-428 variant I422Y]
FL-geph; [1]
  Fl-geph Binding Intensity [norm.]: 0.84 norm.
Native geph; [2]
  Native geph Binding Intensity [norm.]: 0.48 norm.
gephE; [3]
  gephE Binding Intensity [norm.]: 0.69 norm.

## DLRSNDFSIVGSLPR [GlyRβ_Full_Positional_Scan_099]
FL-geph; [1]
  Fl-geph Binding Intensity [norm.]: 1 norm.
Native geph; [2]
  Native geph Binding Intensity [norm.]: 1 norm.
gephE; [3]
  gephE Binding Intensity [norm.]: 1 norm.

## DLRSNDFIIVGSLPR [GlyRβ_Full_Positional_Scan_143, GlyR β 414-428 variant S421I]
FL-geph; [1]
  Fl-geph Binding Intensity [norm.]: 0.41 norm.
Native geph; [2]
  Native geph Binding Intensity [norm.]: 0.18 norm.
gephE; [3]
  gephE Binding Intensity [norm.]: 0.4 norm.

## DLRSYDFSIVGSLPR [GlyRβ_Full_Positional_Scan_089]
FL-geph; [1]
  Fl-geph Binding Intensity [norm.]: 0.76 norm.
Native geph; [2]
  Native geph Binding Intensity [norm.]: 0.68 norm.
gephE; [3]
  gephE Binding Intensity [norm.]: 0.89 norm.

## DLRINDFSIVGSLPR [GlyRβ_Full_Positional_Scan_063]
FL-geph; [1]
  Fl-geph Binding Intensity [norm.]: 0.91 norm.
Native geph; [2]
  Native geph Binding Intensity [norm.]: 1.05 norm.
gephE; [3]
  gephE Binding Intensity [norm.]: 0.92 norm.

## DLRSNDFSIVGSLPK [GlyRβ_Full_Positional_Scan_294]
FL-geph; [4]
  Fl-geph Binding Intensity [norm.]: 1.24 norm.
Native geph; [5]
  Native geph Binding Intensity [norm.]: 0.71 norm.
gephE; [4]
  gephE Binding Intensity [norm.]: 0.92 norm.

## DLRSNDFSIVGWLPR [GlyRβ_Full_Positional_Scan_228]
FL-geph; [4]
  Fl-geph Binding Intensity [norm.]: 0.67 norm.
Native geph; [5]
  Native geph Binding Intensity [norm.]: 0.19 norm.
gephE; [4]
  gephE Binding Intensity [norm.]: 0.57 norm.

## DLRSNDLSIVGSLPR [GlyRβ_Full_Positional_Scan_124, GlyR β 414-428 variant F420L]
FL-geph; [1]
  Fl-geph Binding Intensity [norm.]: 0.69 norm.
Native geph; [2]
  Native geph Binding Intensity [norm.]: 0.44 norm.
gephE; [3]
  gephE Binding Intensity [norm.]: 0.58 norm.

## DLRSCDFSIVGSLPR [GlyRβ_Full_Positional_Scan_097]
FL-geph; [1]
  Fl-geph Binding Intensity [norm.]: 0.76 norm.
Native geph; [2]
  Native geph Binding Intensity [norm.]: 0.83 norm.
gephE; [3]
  gephE Binding Intensity [norm.]: 0.99 norm.

## DLRSNDFSILGSLPR [GlyRβ_Full_Positional_Scan_184, GlyR β 414-428 variant V423L]
FL-geph; [1]
  Fl-geph Binding Intensity [norm.]: 0.66 norm.
Native geph; [2]
  Native geph Binding Intensity [norm.]: 0.23 norm.
gephE; [3]
  gephE Binding Intensity [norm.]: 0.39 norm.

## DLRSADFSIVGSLPR [GlyRβ_Full_Positional_Scan_081]
FL-geph; [1]
  Fl-geph Binding Intensity [norm.]: 0.9 norm.
Native geph; [2]
  Native geph Binding Intensity [norm.]: 0.76 norm.
gephE; [3]
  gephE Binding Intensity [norm.]: 0.93 norm.

## DLRSIDFSIVGSLPR [GlyRβ_Full_Positional_Scan_083]
FL-geph; [1]
  Fl-geph Binding Intensity [norm.]: 0.81 norm.
Native geph; [2]
  Native geph Binding Intensity [norm.]: 0.55 norm.
gephE; [3]
  gephE Binding Intensity [norm.]: 0.92 norm.

## DLRSNDFSSVGSLPR [GlyRβ_Full_Positional_Scan_175, GlyR β 414-428 variant I422S]
FL-geph; [1]
  Fl-geph Binding Intensity [norm.]: 0.87 norm.
Native geph; [2]
  Native geph Binding Intensity [norm.]: 0.27 norm.
gephE; [3]
  gephE Binding Intensity [norm.]: 0.52 norm.

## NLRSNDFSIVGSLPR [GlyRβ_Full_Positional_Scan_019]
FL-geph; [1]
  Fl-geph Binding Intensity [norm.]: 1 norm.
Native geph; [2]
  Native geph Binding Intensity [norm.]: 1.28 norm.
gephE; [3]
  gephE Binding Intensity [norm.]: 1.15 norm.

## DLRSNDFSIYGSLPR [GlyRβ_Full_Positional_Scan_189, GlyR β 414-428 variant V423Y]
FL-geph; [1]
  Fl-geph Binding Intensity [norm.]: 0.84 norm.
Native geph; [2]
  Native geph Binding Intensity [norm.]: 0.34 norm.
gephE; [3]
  gephE Binding Intensity [norm.]: 0.79 norm.

## DLRSNDFSIVPSLPR [GlyRβ_Full_Positional_Scan_205, GlyR β 414-428 variant G424P]
FL-geph; [1]
  Fl-geph Binding Intensity [norm.]: 0.5 norm.
Native geph; [2]
  Native geph Binding Intensity [norm.]: 0.21 norm.
gephE; [3]
  gephE Binding Intensity [norm.]: 0.41 norm.

## DLRSNDFSIVGSLPY [GlyRβ_Full_Positional_Scan_289]
FL-geph; [4]
  Fl-geph Binding Intensity [norm.]: 0.74 norm.
Native geph; [5]
  Native geph Binding Intensity [norm.]: 1.09 norm.
gephE; [4]
  gephE Binding Intensity [norm.]: 0.87 norm.

## DLCSNDFSIVGSLPR [GlyRβ_Full_Positional_Scan_057]
FL-geph; [1]
  Fl-geph Binding Intensity [norm.]: 1.14 norm.
Native geph; [2]
  Native geph Binding Intensity [norm.]: 1.41 norm.
gephE; [3]
  gephE Binding Intensity [norm.]: 0.88 norm.

## DLRSNDFSIVGSLPP [GlyRβ_Full_Positional_Scan_285]
FL-geph; [4]
  Fl-geph Binding Intensity [norm.]: 1.03 norm.
Native geph; [5]
  Native geph Binding Intensity [norm.]: 1.08 norm.
gephE; [4]
  gephE Binding Intensity [norm.]: 1.02 norm.

## DLRSNDFSIVGSYPR [GlyRβ_Full_Positional_Scan_249]
FL-geph; [4]
  Fl-geph Binding Intensity [norm.]: 0.87 norm.
Native geph; [5]
  Native geph Binding Intensity [norm.]: 1.23 norm.
gephE; [4]
  gephE Binding Intensity [norm.]: 0.99 norm.

## DLRSNDFSIVGHLPR [GlyRβ_Full_Positional_Scan_233]
FL-geph; [4]
  Fl-geph Binding Intensity [norm.]: 1.01 norm.
Native geph; [5]
  Native geph Binding Intensity [norm.]: 0.9 norm.
gephE; [4]
  gephE Binding Intensity [norm.]: 0.8 norm.

## DLRSNDFSIVGILPR [GlyRβ_Full_Positional_Scan_223]
FL-geph; [4]
  Fl-geph Binding Intensity [norm.]: 1.05 norm.
Native geph; [5]
  Native geph Binding Intensity [norm.]: 0.45 norm.
gephE; [4]
  gephE Binding Intensity [norm.]: 0.62 norm.

## DLRSNDFSIVGSLAR [GlyRβ_Full_Positional_Scan_261]
FL-geph; [4]
  Fl-geph Binding Intensity [norm.]: 0.99 norm.
Native geph; [5]
  Native geph Binding Intensity [norm.]: 0.63 norm.
gephE; [4]
  gephE Binding Intensity [norm.]: 0.67 norm.

## TLRSNDFSIVGSLPR [GlyRβ_Full_Positional_Scan_016]
FL-geph; [1]
  Fl-geph Binding Intensity [norm.]: 0.85 norm.
Native geph; [2]
  Native geph Binding Intensity [norm.]: 0.79 norm.
gephE; [3]
  gephE Binding Intensity [norm.]: 1.16 norm.

## DLYSNDFSIVGSLPR [GlyRβ_Full_Positional_Scan_049]
FL-geph; [1]
  Fl-geph Binding Intensity [norm.]: 1.03 norm.
Native geph; [2]
  Native geph Binding Intensity [norm.]: 1.37 norm.
gephE; [3]
  gephE Binding Intensity [norm.]: 0.96 norm.

## DLRSNDFSIVGYLPR [GlyRβ_Full_Positional_Scan_229]
FL-geph; [4]
  Fl-geph Binding Intensity [norm.]: 0.59 norm.
Native geph; [5]
  Native geph Binding Intensity [norm.]: 0.31 norm.
gephE; [4]
  gephE Binding Intensity [norm.]: 0.53 norm.

## DNRSNDFSIVGSLPR [GlyRβ_Full_Positional_Scan_039]
FL-geph; [1]
  Fl-geph Binding Intensity [norm.]: 0.98 norm.
Native geph; [2]
  Native geph Binding Intensity [norm.]: 1.18 norm.
gephE; [3]
  gephE Binding Intensity [norm.]: 0.96 norm.

## DLRSNDGSIVGSLPR [GlyRβ_Full_Positional_Scan_122, GlyR β 414-428 variant F420G]
FL-geph; [1]
  Fl-geph Binding Intensity [norm.]: 0.55 norm.
Native geph; [2]
  Native geph Binding Intensity [norm.]: 0.37 norm.
gephE; [3]
  gephE Binding Intensity [norm.]: 0.49 norm.

## DLRSNDFSIVGSLPS [GlyRβ_Full_Positional_Scan_295]
FL-geph; [4]
  Fl-geph Binding Intensity [norm.]: 1.3 norm.
Native geph; [5]
  Native geph Binding Intensity [norm.]: 1.3 norm.
gephE; [4]
  gephE Binding Intensity [norm.]: 0.82 norm.

## DLRSNDFSIVGSLNR [GlyRβ_Full_Positional_Scan_279]
FL-geph; [4]
  Fl-geph Binding Intensity [norm.]: 0.77 norm.
Native geph; [5]
  Native geph Binding Intensity [norm.]: 0.67 norm.
gephE; [4]
  gephE Binding Intensity [norm.]: 0.71 norm.

## DLRSNDFSIVGSLDR [GlyRβ_Full_Positional_Scan_270]
FL-geph; [4]
  Fl-geph Binding Intensity [norm.]: 0.82 norm.
Native geph; [5]
  Native geph Binding Intensity [norm.]: 0.4 norm.
gephE; [4]
  gephE Binding Intensity [norm.]: 0.58 norm.

## DLMSNDFSIVGSLPR [GlyRβ_Full_Positional_Scan_058]
FL-geph; [1]
  Fl-geph Binding Intensity [norm.]: 1.3 norm.
Native geph; [2]
  Native geph Binding Intensity [norm.]: 1.59 norm.
gephE; [3]
  gephE Binding Intensity [norm.]: 0.77 norm.

## DLRSNDFSIVWSLPR [GlyRβ_Full_Positional_Scan_208, GlyR β 414-428 variant G424W]
FL-geph; [1]
  Fl-geph Binding Intensity [norm.]: 0.35 norm.
Native geph; [2]
  Native geph Binding Intensity [norm.]: 0.16 norm.
gephE; [3]
  gephE Binding Intensity [norm.]: 0.32 norm.

## DLRSNDFSIVHSLPR [GlyRβ_Full_Positional_Scan_213, GlyR β 414-428 variant G424H]
FL-geph; [4]
  Fl-geph Binding Intensity [norm.]: 0.5 norm.
Native geph; [5]
  Native geph Binding Intensity [norm.]: 0.18 norm.
gephE; [4]
  gephE Binding Intensity [norm.]: 0.47 norm.

## DLRSNDFSIVGSDPR [GlyRβ_Full_Positional_Scan_250]
FL-geph; [4]
  Fl-geph Binding Intensity [norm.]: 1.05 norm.
Native geph; [5]
  Native geph Binding Intensity [norm.]: 0.61 norm.
gephE; [4]
  gephE Binding Intensity [norm.]: 0.72 norm.

## DLRSNDFSFVGSLPR [GlyRβ_Full_Positional_Scan_167, GlyR β 414-428 variant I422F]
FL-geph; [1]
  Fl-geph Binding Intensity [norm.]: 0.76 norm.
Native geph; [2]
  Native geph Binding Intensity [norm.]: 0.27 norm.
gephE; [3]
  gephE Binding Intensity [norm.]: 0.51 norm.
